Structures can show the parent of a compound that is named as a salt.
Molecular target: S1P1 receptor (Homo sapiens, UniProt P21453)
Test: 35S-GTPγS binding, membranes from CHO cells expressing S1P1
Type: biochemical
Settings: CHO cell membranes expressing S1P1
Summary of the method: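 Membranes (1–10 μg) from CHO cells expressing the receptor were incubated with compound in 20 mM HEPES pH 7.4, 10 mM MgCl2, 140 mM NaCl, 1.7 μM GDP, saponin and 0.2% BSA. [35S]GTPγS (added at 1.5 nM) was then bound for 60 min at 30 °C. Membrane-bound radioactivity, averaged over triplicates, is expressed relative to S1P activation (n=2).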

S1P1 receptor, sequence (P21453 whole entry): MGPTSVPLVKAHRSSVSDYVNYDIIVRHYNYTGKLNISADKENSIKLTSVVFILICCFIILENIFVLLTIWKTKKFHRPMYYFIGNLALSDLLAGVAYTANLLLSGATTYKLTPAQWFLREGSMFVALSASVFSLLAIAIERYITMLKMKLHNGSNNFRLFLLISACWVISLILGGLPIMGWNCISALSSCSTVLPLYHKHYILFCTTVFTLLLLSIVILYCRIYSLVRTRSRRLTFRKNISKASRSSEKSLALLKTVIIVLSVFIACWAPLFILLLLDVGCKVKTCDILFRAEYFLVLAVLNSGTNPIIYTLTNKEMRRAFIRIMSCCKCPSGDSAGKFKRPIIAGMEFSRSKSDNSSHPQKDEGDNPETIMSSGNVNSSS

EC50 [nM] | Compound
39 | Fc1ccc(Br)c(-c2noc(-c3nnn(-c4ccccc4F)c3-c3ccncc3)n2)c1 [Example 149, 4-[4-[3-(2-bromo-5-fluorophenyl)-1,2,4-oxadiazol-5-yl]-1-(2-fluorophenyl)-1H-1,2,3-triazol-5-yl]pyridine]
583 | COCc1c(-c2nc(-c3ccc(S(N)(=O)=O)cc3)no2)nnn1-c1ccccc1F [Example 76, 4-{5-[1-(2-fluorophenyl)-5-(methoxymethyl)-1H-1,2,3-triazol-4-yl]-1,2,4-oxadiazol-3-yl}benzenesulfonamide]
19 | Fc1ccccc1-n1nnc(-c2nc(-c3ccc4[nH]ccc4c3)no2)c1-c1ccncc1 [Example 43, 5-{5-[1-(2-fluorophenyl)-5-pyridin-4-yl-1H-1,2,3-triazol-4-yl]-1,2,4-oxadiazol-3-yl}-1H-indole]
13 | Fc1ccccc1-n1nnc(-c2nc(-c3ccccc3)no2)c1-c1ccncc1 [Example 95, 4-[1-(2-fluorophenyl)-4-(3-phenyl-1,2,4-oxadiazol-5-yl)-1H-1,2,3-triazol-5-yl]pyridine]
340 | Fc1ccccc1-n1nnc(-c2nc(-c3cccc(C(F)(F)F)c3)no2)c1CN1CCOCC1 [Example 151, 4-[(1-(2-fluorophenyl)-4-{3-[3-(trifluoromethyl)phenyl]-1,2,4-oxadiazol-5-yl}-1H-1,2,3-triazol-5-yl)methyl]morpholine]
78 | Nc1cc(-c2noc(-c3nnn(-c4ccccc4F)c3-c3ccncc3)n2)ccn1 [Example 152, 4-{5-[1-(2-fluorophenyl)-5-pyridin-4-yl-1H-1,2,3-triazol-4-yl]-1,2,4-oxadiazol-3-yl}pyridin-2-amine]
577 | COCCNCc1cccc(-c2noc(-c3nnn(-c4ccccc4F)c3-c3ccncc3)n2)c1 [Example 147, N-(3-{5-[1-(2-fluorophenyl)-5-pyridin-4-yl-1H-1,2,3-triazol-4-yl]-1,2,4-oxadiazol-3-yl}benzyl)-2-methoxyethanamine]
1420 | CC(=O)N1CCC(c2noc(-c3nnn(-c4ccccc4F)c3-c3ccncc3)n2)CC1 [Example 55, 4-[4-[3-(1-acetylpiperidin-4-yl)-1,2,4-oxadiazol-5-yl]-1-(2-fluorophenyl)-1H-1,2,3-triazol-5-yl]pyridine]
56 | O=C(O)C1CCCN(Cc2ccc(-c3noc(-c4nnn(-c5ccccc5F)c4-c4ccncc4)n3)cc2)C1 (stereo not shown) [Example 158, 1-(4-{5-[1-(2-fluorophenyl)-5-pyridin-4-yl-1H-1,2,3-triazol-4-yl]-1,2,4-oxadiazol-3-yl}benzyl)piperidine-3-carboxylic acid]
176 | Fc1ccccc1-n1nnc(-c2nc(-c3cccc(Cn4ccnc4)c3)no2)c1-c1ccncc1 [Example 82, 4-(1-(2-fluorophenyl)-4-{3-[3-(1H-imidazol-1-ylmethyl)phenyl]-1,2,4-oxadiazol-5-yl}-1H-1,2,3-triazol-5-yl)pyridine]
16 | O=C(O)[C@H]1CC[C@H](NCc2ccc(-c3noc(-c4nnn(-c5ccccc5F)c4-c4ccncc4)n3)cc2)CC1 [Example 168, (trans)-4-(4-(5-(1-(2-fluorophenyl)-5-(pyridin-4-yl)-1H-1,2,3-triazol-4-yl)-1,2,4-oxadiazol-3-yl)benzylamino)cyclohexanecarboxylic acid]
9 | Nc1c(Cl)cc(-c2noc(-c3nnn(-c4ccccc4F)c3-c3ccncc3)n2)cc1Cl [Example 117, 2,6-dichloro-4-{5-[1-(2-fluorophenyl)-5-pyridin-4-yl-1H-1,2,3-triazol-4-yl]-1,2,4-oxadiazol-3-yl}aniline]
71 | Fc1ccccc1-n1nnc(-c2nc(-c3ccc(CN4CC[C@@H](F)C4)cc3)no2)c1-c1ccncc1 [Example 160, 4-{1-(2-fluorophenyl)-4-[3-(4-{[(3R)-3-fluoropyrrolidin-1-yl]methyl}phenyl)-1,2,4-oxadiazol-5-yl]-1H-1,2,3-triazol-5-yl}pyridine]
806 | Fc1ccc(F)c(-c2noc(-c3nnn(-c4ccccc4F)c3CNCC3CC3)n2)c1 [Example 112, 1-cyclopropyl-N-{[4-[3-(2,5-difluorophenyl)-1,2,4-oxadiazol-5-yl]-1-(2-fluorophenyl)-1H-1,2,3-triazol-5-yl]methyl}methanamine]
754 | Fc1ccccc1-n1nnc(-c2nc(-c3ccc(C(F)(F)F)nc3)no2)c1-c1ccncc1 [Example 120, 5-{5-[1-(2-fluorophenyl)-5-pyridin-4-yl-1H-1,2,3-triazol-4-yl]-1,2,4-oxadiazol-3-yl}-2-(trifluoromethyl)pyridine]
218 | Fc1ccccc1-n1nnc(-c2nc(-c3ccc4c(c3)NCC4)no2)c1-c1ccncc1 [Example 157, 6-{5-[1-(2-fluorophenyl)-5-pyridin-4-yl-1H-1,2,3-triazol-4-yl]-1,2,4-oxadiazol-3-yl}indoline]
43 | OCCc1ccc(-c2noc(-c3nnn(-c4ccccc4F)c3-c3ccncc3)n2)cc1 [Example 150, 2-(4-{5-[1(2-fluorophenyl)-5-pyridin-4-yl-1H-1,2,3-triazol-4-yl]-1,2,4-oxadiazol-3-yl}phenyl)ethanol]

EC50 [nM] | Compound
953 | Fc1ccccc1-n1nnc(-c2nc(-c3cccnc3)no2)c1C1CCCO1 (stereo not shown) [Example 54]
27 | Fc1ccccc1-n1nnc(-c2nc(-c3ccc4c(c3)CCN4)no2)c1-c1ccncc1 [Example 156, 5-{5-[1-(2-fluorophenyl)-5-pyridin-4-yl-1H-1,2,3-triazol-4-yl]-1,2,4-oxadiazol-3-yl}indoline hydrochloride]
246 | NC(=O)C1CCN(Cc2ccc(-c3noc(-c4nnn(-c5ccccc5F)c4-c4ccncc4)n3)cc2)CC1 [Example 115, 11-(4-{5-[1-(2-fluorophenyl)-5-pyridin-4-yl-1H-1,2,3-triazol-4-yl]-1,2,4-oxadiazol-3-yl}benzyl)piperidine-4-carboxamide]
758 | OC1CCN(Cc2cccc(-c3noc(-c4nnn(-c5ccccc5F)c4-c4ccncc4)n3)c2)C1 (stereo not shown) [Example 134, 1-(3-{5-[1-(2-fluorophenyl)-5-pyridin-4-yl-1H-1,2,3-triazol-4-yl]-1,2,4-oxadiazol-3-yl}benzyl)pyrrolidin-3-ol]
118 | OCC1CN(Cc2ccc(-c3noc(-c4nnn(-c5ccccc5F)c4-c4ccncc4)n3)cc2)CCO1 (stereo not shown) [Example 143, [4-(4-{5-[1-(2-fluorophenyl)-5-pyridin-4-yl-1H-1,2,3-triazol-4-yl]-1,2,4-oxadiazol-3-yl}benzyl)morpholin-2-yl]methanol]
162 | CC(C)(NCc1ccc(-c2noc(-c3nnn(-c4ccccc4F)c3-c3ccncc3)n2)cc1)C(=O)O [Example 174, N-(4-{5-[1-(2-fluorophenyl)-5-pyridin-4-yl-1H-1,2,3-triazol-4-yl]-1,2,4-oxadiazol-3-yl}benzyl)-2-methylalanine]
67 | COCc1c(-c2nc(-c3ccc(Cn4ccnc4)cc3)no2)nnn1-c1ccccc1F [Example 175, 5-[1-(2-fluorophenyl)-5-(methoxymethyl)-1H-1,2,3-triazol-4-yl]-3-[4-(1H-imidazol-1-ylmethyl)phenyl]-1,2,4-oxadiazole]
383 | OCCNCc1cccc(-c2noc(-c3nnn(-c4ccccc4F)c3-c3ccncc3)n2)c1 [Example 132, 2-[(3-{5-[1(2-fluorophenyl)-5-pyridin-4-yl-1H-1,2,3-triazol-4-yl]-1,2,4-oxadiazol-3-yl}benzyl)amino]ethanol formate]
439 | Fc1ccccc1-n1nnc(-c2nc(-c3ccc(CN4CCOCC4)cc3)no2)c1-c1ccncc1 [Example 98, 4-(4-{5-[1-(2-fluorophenyl)-5-pyridin-4-yl-1H-1,2,3-triazol-4-yl]-1,2,4-oxadiazol-3-yl}benzyl)morpholine]
226 | COc1ccc(-c2noc(-c3nnn(-c4ccccc4F)c3-c3ccncc3)n2)cn1 [Example 126, 5-{5-[1-(2-fluorophenyl)-5-pyridin-4-yl-1H-1,2,3-triazol-4-yl]-1,2,4-oxadiazol-3-yl}-2-methoxypyridine]
211 | Fc1ccccc1-c1noc(-c2nnn(-c3ccccc3F)c2C2CCCO2)n1 (stereo not shown) [Example 53, 3-(2-fluorophenyl)-5-[1-(2-fluorophenyl)-5-(tetrahydrofuran-2-yl)-1H-1,2,3-triazol-4-yl]-1,2,4-oxadiazole]
176 | Fc1ccc(F)c(-c2noc(-c3nnn(-c4ccccc4F)c3C3CCCO3)n2)c1 (stereo not shown) [Example 71, 3-(2,5-difluorophenyl)-5-[1-(2-fluorophenyl)-5-(tetrahydrofuran-2-yl)-1H-1,2,3-triazol-4-yl]-1,2,4-oxadiazole]
742 | O=C(O)[C@H]1CCC[C@H]1NCc1ccc(-c2noc(-c3nnn(-c4ccccc4F)c3-c3ccncc3)n2)cc1 [Example 177, (1S,2R)-2-[(4-{5-[1-(2-fluorophenyl)-5-pyridin-4-yl-1H-1,2,3-triazol-4-yl]-1,2,4-oxadiazol-3-yl}benzyl)amino]cyclopentanecarboxylic acid]
21 | OCc1ccc(-c2noc(-c3nnn(-c4ccccc4F)c3-c3ccncc3)n2)cc1 [Example 108, (4-{5-[1-(2-fluorophenyl)-5-pyridin-4-yl-1H-1,2,3-triazol-4-yl]-1,2,4-oxadiazol-3-yl}phenyl)methanol]
1260 | Fc1ccccc1-n1nnc(-c2nc(-c3cnccn3)no2)c1-c1ccncc1 [Example 119, 2-{5-[1-(2-fluorophenyl)-5-pyridin-4-yl-1H-1,2,3-triazol-4-yl]-1,2,4-oxadiazol-3-yl}pyrazine]
646 | CNCc1cccc(-c2noc(-c3nnn(-c4ccccc4F)c3-c3ccncc3)n2)c1 [Example 133, 1-(3-{5-[1-(2-fluorophenyl)-5-pyridin-4-yl-1H-1,2,3-triazol-4-yl]-1,2,4-oxadiazol-3-yl}phenyl)-N-methylmethanamine formate]
230 | CC(=O)Nc1ccc(-c2noc(-c3nnn(-c4ccccc4F)c3-c3ccncc3)n2)cn1 [Example 145, N-(5-{5-[1-(2-fluorophenyl)-5-pyridin-4-yl-1H-1,2,3-triazol-4-yl]-1,2,4-oxadiazol-3-yl}pyridin-2-yl)acetamide]
